Assay results as given in patent publication US9911927B2, “Compounds having semiconducting properties and related compositions and devices” (Flexterra, Inc., priority 2011, dated 2018).

Columns and labels:
[1] = Solubility in toluene at 60° C.; assay type: physicochemical
Protocol: The solubility of Cn-DNTTs (Cn=a linear alkyl chain) are very low in organic solvents (up to ˜80 mg/L in toluene at 60° C.) (see: Adv. Mater. 2011, 23, 1222-1225).

SMILES | melting point [°C] | solubility ([1]; in toluene at 60° C.) | solubility relative to corresponding linear alkyl chain DNTT compounds ([1]; toluene at 60° C., times higher) [times]
CCCCC(C)c1ccc2cc3c(cc2c1)sc1c2cc4ccc(C(C)CCCC)cc4cc2sc31 (stereo not shown) [2,9-1MP-DNTT, 2,9-Bis(1-methylpentyl)dinaphtho[2,3-b:2′,3′-f]thieno[3,2-b]thiophene] | 262 to 263 | about 50 g/L | > 500
CCCC(C)c1ccc2cc3c(cc2c1)sc1c2cc4ccc(C(C)CCC)cc4cc2sc31 (stereo not shown) [2,9-1MB-DNTT, 2,9-Bis(1-methylbutyl)dinaphtho [2,3-b:2′,3′-f]thieno[3,2-b]thiophene] | 280 to 281 |  | 
